From US20200247800A1, “SUBSTITUTED BICYCLIC HETEROCYCLIC COMPOUNDS AS NADPH OXIDASE INHIBITORS” (Glenmark Pharmaceuticals S.A., priority 2017, published 2020)
Counter-ions that a name gives are not always drawn.

Target: T1, human NOX4 (Homo sapiens, UniProt Q9NPH5)
T1 construct: expressed in transfected cells; membrane fraction used
T1 sequence (Q9NPH5 1-578): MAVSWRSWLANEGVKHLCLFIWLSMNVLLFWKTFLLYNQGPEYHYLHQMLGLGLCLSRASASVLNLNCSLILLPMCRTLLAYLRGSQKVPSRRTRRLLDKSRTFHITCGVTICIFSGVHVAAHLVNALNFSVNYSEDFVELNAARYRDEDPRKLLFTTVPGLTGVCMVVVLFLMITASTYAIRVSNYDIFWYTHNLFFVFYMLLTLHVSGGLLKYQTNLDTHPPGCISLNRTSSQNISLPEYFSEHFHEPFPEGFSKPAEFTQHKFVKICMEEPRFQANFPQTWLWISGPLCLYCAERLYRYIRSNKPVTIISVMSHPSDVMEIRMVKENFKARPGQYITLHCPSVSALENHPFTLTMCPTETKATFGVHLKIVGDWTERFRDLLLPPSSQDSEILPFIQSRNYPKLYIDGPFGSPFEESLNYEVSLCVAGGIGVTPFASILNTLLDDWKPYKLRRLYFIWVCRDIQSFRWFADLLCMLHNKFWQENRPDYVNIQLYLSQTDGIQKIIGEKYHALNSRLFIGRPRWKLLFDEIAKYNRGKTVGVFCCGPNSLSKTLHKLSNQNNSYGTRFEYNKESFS
T1 sequence (P13498 1-195 partner): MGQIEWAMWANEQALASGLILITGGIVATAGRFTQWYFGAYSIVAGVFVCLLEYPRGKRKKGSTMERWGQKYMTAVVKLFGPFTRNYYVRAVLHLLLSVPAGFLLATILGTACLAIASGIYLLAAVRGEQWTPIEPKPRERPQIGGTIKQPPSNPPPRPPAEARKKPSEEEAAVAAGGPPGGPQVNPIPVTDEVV
Experiment: Cell free membrane based in vitro NOX4 assay: H2O2 production by membranes expressing human NOX4, measured with Amplex Red
Assay type: biochemical
Conditions: for inhibition at 1 µM: read-out: Percentage inhibition at 1.0 μM; for inhibition at 10 µM: read-out: Percentage inhibition at 10.0 μM; for IC50: class symbols
Outline: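 IC50 came from concentration-response curves fitted as % of the inhibitor-free maximum. H2O2 formation was monitored for 10 min via Amplex Red/HRP fluorescence (544/590 nm) after NADPH start. Membranes from a stable hNOX4/HEK line had 20 min exposure to inhibitor beforehand at pH 7.4.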

O=c1c(O)c(-c2ccccc2Cl)[nH]c2sc(C(F)(F)F)nc12 [Example 63, 5-(2-Chlorophenyl)-6-hydroxy-2-trifluoromethyl[1,3]thiazolo[5,4-b]pyridin-7(4H)-one]
inhibition at 1 µM (1.0 μM compound): 58.6% | inhibition at 10 µM (10.0 μM compound): 100% | IC50: > 0.15 µM

CCc1nn(CCC2CCOCC2)c2[nH]c(-c3ccccc3Cl)c(O)c(=O)c12 [Example 212, 6-(2-Chlorophenyl)-3-ethyl-5-hydroxy-1-(2-(tetrahydro-2H-pyran-4-yl)ethyl)-1H-pyrazolo[3,4-b]pyridin-4(7H)-one]
inhibition at 1 µM (1.0 μM compound): 81.5% | inhibition at 10 µM (10.0 μM compound): 71.7% | IC50: > 0.15 µM

CCn1nc(C)c2c(=O)c(O)c(-c3c(F)cc(NS(C)(=O)=O)cc3F)[nH]c21 [Example 236, N-[4-(1-Ethyl-5-hydroxy-3-methyl-4-oxo-4,7-dihydro-1H-pyrazolo[3,4-b]pyridin-6-yl)-3,5-difluorophenyl]methanesulfonamide]
inhibition at 1 µM (1.0 μM compound): 84.8% | inhibition at 10 µM (10.0 μM compound): 87.7% | IC50: 0.05 to 0.1 µM

Cn1nc(CN2CCOCC2)c2c(=O)c(O)c(-c3ccccc3Cl)[nH]c21 [Example 199, 6-(2-Chlorophenyl)-5-hydroxy-1-methyl-3-(morpholinomethyl)-1H-pyrazolo[3,4-b]pyridin-4(7H)-one]
inhibition at 1 µM (1.0 μM compound): 86.8% | inhibition at 10 µM (10.0 μM compound): 93.5% | IC50: 0.1 to 0.15 µM

O=c1c(O)c(-c2c(F)cccc2F)[nH]c2c1c(CN1CCOCC1)nn2C1CC1 [Example 201, 1-Cyclopropyl-6-(2,6-difluorophenyl)-5-hydroxy-3-(morpholinomethyl)-1H-pyrazolo[3,4-b]pyridin-4(7H)-one]
inhibition at 1 µM (1.0 μM compound): 74% | inhibition at 10 µM (10.0 μM compound): 87% | IC50: > 0.15 µM

Cc1nn(CCN(C)C)c2[nH]c(-c3c(F)cccc3F)c(O)c(=O)c12 [Example 89, 6-(2,6-Difluorophenyl)-1-(2-(dimethylamino)ethyl)-5-hydroxy-3-methyl-1H-pyrazolo[3,4-b]pyridin-4(7H)-one]
inhibition at 1 µM (1.0 μM compound): 100% | inhibition at 10 µM (10.0 μM compound): 100% | IC50: 0.05 to 0.1 µM

Cc1nn(Cc2ccccc2)c2[nH]c(-c3c(F)cccc3F)c(O)c(=O)c12 [Example 76, 1-Benzyl-6-(2,6-difluorophenyl)-5-hydroxy-3-methyl-1H-pyrazolo[3,4-b]pyridin-4(7H)-one]
inhibition at 1 µM (1.0 μM compound): 95% | inhibition at 10 µM (10.0 μM compound): 93.5% | IC50: < 0.05 µM

O=c1c(O)c(-c2c(F)cccc2F)[nH]c2c1c(C(F)(F)F)nn2C1CCOCC1 [Example 134, 6-(2,6-Difluorophenyl)-5-hydroxy-1-(tetrahydro-2H-pyran-4-yl)-3-(trifluoromethyl)-1,7-dihydro-4H-pyrazolo[3,4-b]pyridin-4-one]
inhibition at 1 µM (1.0 μM compound): 57.1% | inhibition at 10 µM (10.0 μM compound): 88.2% | IC50: > 0.15 µM

CCc1nn(CCO)c2[nH]c(-c3c(F)cccc3F)c(O)c(=O)c12 [Example 203, 6-(2,6-Difluorophenyl)-3-ethyl-5-hydroxy-1-(2-hydroxyethyl)-1H-pyrazolo[3,4-b]pyridin-4(7H)-one]
inhibition at 1 µM (1.0 μM compound): 82.5% | inhibition at 10 µM (10.0 μM compound): 77.7% | IC50: 0.05 to 0.1 µM

Cc1nn(-c2ccc(F)cc2Cl)c2[nH]c(-c3ccccc3Cl)c(O)c(=O)c12 [Example 141, 1-(2-Chloro-4-fluorophenyl)-6-(2-chlorophenyl)-5-hydroxy-3-methyl-1H-pyrazolo[3,4-b]pyridin-4(7H)-one]
inhibition at 1 µM (1.0 μM compound): 77.9% | inhibition at 10 µM (10.0 μM compound): 95.1% | IC50: > 0.15 µM

COCCCn1nc(C)c2c(=O)c(O)c(-c3c(F)cccc3F)[nH]c21 [Example 92, 6-(2,6-Difluorophenyl)-5-hydroxy-1-(3-methoxypropyl)-3-methyl-1H-pyrazolo[3,4-b]pyridin-4(7H)-one]
inhibition at 1 µM (1.0 μM compound): 75.6% | inhibition at 10 µM (10.0 μM compound): 76.5% | IC50: 0.1 to 0.15 µM

CCc1nn(CCC(C)C)c2[nH]c(-c3ccccc3Cl)c(O)c(=O)c12 [Example 181, 6-(2-Chlorophenyl)-3-ethyl-5-hydroxy-1-isopentyl-1H-pyrazolo[3,4-b]pyridin-4(7H)-one]
inhibition at 1 µM (1.0 μM compound): 100% | inhibition at 10 µM (10.0 μM compound): 100% | IC50: 0.05 to 0.1 µM

CCn1nc(C)c2c(=O)c(O)c(-c3cc(F)ccc3F)[nH]c21 [Example 81, 6-(2,5-Difluorophenyl)-1-ethyl-5-hydroxy-3-methyl-1H-pyrazolo[3,4-b]pyridin-4(7H)-one]
inhibition at 1 µM (1.0 μM compound): 93.3% | inhibition at 10 µM (10.0 μM compound): 81.5% | IC50: > 0.15 µM

CC(C)Cn1nc(C(F)(F)F)c2c(=O)c(O)c(-c3c(F)cccc3F)[nH]c21 [Example 111, 6-(2,6-Difluorophenyl)-5-hydroxy-1-isobutyl-3-(trifluoromethyl)-1H-pyrazolo[3,4-b]pyridin-4(7H)-one]
inhibition at 1 µM (1.0 μM compound): 56.4% | inhibition at 10 µM (10.0 μM compound): 81.7% | IC50: > 0.15 µM

Cn1nc(CN2CCN(C3COC3)CC2)c2c(=O)c(O)c(-c3c(F)cccc3F)[nH]c21 [Example 219, 6-(2,6-Difluorophenyl)-5-hydroxy-1-methyl-3-((4-(oxetan-3-yl)piperazin-1-yl)methyl)-1H-pyrazolo[3,4-b]pyridin-4(7H)-one]
inhibition at 1 µM (1.0 μM compound): 81.7% | inhibition at 10 µM (10.0 μM compound): 89.2% | IC50: > 0.15 µM

Cc1nn(C2CCC2)c2[nH]c(-c3ccccc3Cl)c(O)c(=O)c12 [Example 144, 6-(2-Chlorophenyl)-1-cyclobutyl-5-hydroxy-3-methyl-1H-pyrazolo[3,4-b]pyridin-4(7H)-one]
inhibition at 1 µM (1.0 μM compound): 83.6% | inhibition at 10 µM (10.0 μM compound): 63.8% | IC50: 0.05 to 0.1 µM

NC(=O)c1nsc2c(=O)c(O)c(-c3ccccc3Cl)[nH]c12 [Example 78, 5-(2-Chlorophenyl)-6-hydroxy-7-oxo-4,7-dihydroisothiazolo[4,5-b]pyridine-3-carboxamide]
inhibition at 1 µM (1.0 μM compound): 55.3% | inhibition at 10 µM (10.0 μM compound): 89.3% | IC50: > 0.15 µM

CC(C)c1c2c(=O)c(O)c(-c3ccccc3Cl)[nH]c2nn1C [Example 75, 6-(2-Chlorophenyl)-5-hydroxy-3-isopropyl-2-methyl-2H-pyrazolo[3,4-b]pyridin-4(7H)-one]
inhibition at 1 µM (1.0 μM compound): 1.59% | inhibition at 10 µM (10.0 μM compound): 12.5%

COc1c(-c2ccccc2Cl)[nH]c2c(c(C)nn2C)c1=O [Example 233, 6-(2-chlorophenyl)-5-methoxy-1,3-dimethyl-1H-pyrazolo[3,4-b]pyridin-4(7H)-one]
inhibition at 1 µM (1.0 μM compound): 32.8% | inhibition at 10 µM (10.0 μM compound): 69.7%

CCc1nn(CCN2CCC(F)(F)CC2)c2[nH]c(-c3c(F)cccc3F)c(O)c(=O)c12 [Example 205, 6-(2,6-Difluorophenyl)-1-(2-(4,4-difluoropiperidin-1-yl)ethyl)-3-ethyl-5-hydroxy-1H-pyrazolo[3,4-b]pyridin-4(7H)-one]
inhibition at 1 µM (1.0 μM compound): 95.9% | inhibition at 10 µM (10.0 μM compound): 94.6% | IC50: 0.05 to 0.1 µM

Cc1n[nH]c2[nH]c(-c3c(F)cccc3F)c(O)c(=O)c12 [Example 106, 6-(2,6-Difluorophenyl)-5-hydroxy-3-methyl-1,7-dihydro-4H-pyrazolo[3,4-b]pyridin-4-one]
inhibition at 1 µM (1.0 μM compound): 100% | inhibition at 10 µM (10.0 μM compound): 100% | IC50: 0.05 to 0.1 µM

CC(C)CN1CCN(Cc2nn(C)c3[nH]c(-c4c(F)cccc4F)c(O)c(=O)c23)CC1 [Example 214, 6-(2,6-Difluorophenyl)-5-hydroxy-3-((4-isobutylpiperazin-1-yl)methyl)-1-methyl-1H-pyrazolo[3,4-b]pyridin-4(7H)-one]
inhibition at 1 µM (1.0 μM compound): 81.8% | inhibition at 10 µM (10.0 μM compound): 85% | IC50: > 0.15 µM

Cc1nn(CCN2CCOCC2)c2[nH]c(-c3cccc(C(F)(F)F)c3F)c(O)c(=O)c12 [Example 239, 6-(2-Fluoro-3-(trifluoromethyl)phenyl)-5-hydroxy-3-methyl-1-(2-morpholinoethyl)-1H-pyrazolo[3,4-b]pyridin-4(7H)-one dihydrochloride]
Percentage inhibition at 1.0 μM (1.0 μM compound, dihydrochloride, 1 µM): 84.59% | Percentage inhibition at 10.0 μM (10.0 μM compound, dihydrochloride, 10 µM): 77.77%

Cc1nn(C2CCOCC2)c2[nH]c(-c3cc(CNC(=O)C(C)(C)C)ccc3Cl)c(O)c(=O)c12 [Example 142, N-(4-Chloro-3-(5-hydroxy-3-methyl-4-oxo-1-(tetrahydro-2H-pyran-4-yl)-4,7-dihydro-1H-pyrazolo[3,4-b]pyridin-6-yl)benzyl)pivalamide]
inhibition at 1 µM (1.0 μM compound): 80.4% | inhibition at 10 µM (10.0 μM compound): 69.9% | IC50: > 0.15 µM

Cc1nn(CCN2C[C@@H](C)O[C@@H](C)C2)c2[nH]c(-c3ccccc3Cl)c(O)c(=O)c12 [Example 148, 6-(2-Chlorophenyl)-1-(2-((2S,6R)-2,6-dimethylmorpholino)ethyl)-5-hydroxy-3-methyl-1H-pyrazolo[3,4-b]pyridin-4(7H)-one]
inhibition at 1 µM (1.0 μM compound): 94.3% | inhibition at 10 µM (10.0 μM compound): 85.3% | IC50: > 0.15 µM
